Measurements reported in the NIST ThermoML archive (doi:10.1021/je100256w).

Assay: cn = amount concentration of the nth substance listed, in mol/dm3
Details: 101 kPa, Liquid, Dip Cell

Cc1ccc(S(=O)(=O)[O-])cc1.[Na+] [sodium p-toluenesulfonate] + O
electrical conductivity [S/m]
Details | 298 K | 303 K | 308 K | 313 K
c1 = 1.98e-05 | 1.97e-05 | 1.898e-05 | 2.03e-05 | 2.26e-05
c1 = 3.92e-05 | 3.417e-05 | 3.49e-05 | 3.87e-05 | 4.25e-05
c1 = 5.83e-05 | 4.83e-05 | 5.03e-05 | 5.5e-05 | 6.1e-05
c1 = 7.69e-05 | 6.1e-05 | 6.43e-05 | 7.18e-05 | 7.97e-05
c1 = 9.52e-05 | 7.34e-05 | 7.77e-05 | 8.74e-05 | 9.66e-05
c1 = 0.0001132 | 8.47e-05 | 9.1e-05 | 0.000101 | 0.000113
c1 = 0.0001308 | 9.61e-05 | 0.000104 | 0.000115 | 0.000128
c1 = 0.0001481 | 0.000107 | 0.000117 | 0.000127 | 0.000142
c1 = 0.0001651 | 0.000117 | 0.000129 | 0.00014 | 0.000156
c1 = 0.0001818 | 0.000127 | 0.000139 | 0.000152 | 0.000169
c1 = 0.0001982 | 0.000137 | 0.000149 | 0.000164 | 0.000181
c1 = 0.0002143 | 0.000147 | 0.000161 | 0.000175 | 0.000194
c1 = 0.0002456 | 0.000164 | 0.000179 | 0.000196 | 0.000203
c1 = 0.0002609 | 0.00017 | 0.000188 | 0.000192 | 0.000214
c1 = 0.0002759 | 0.00018 | 0.000196 | 0.000201 | 0.000224
c1 = 0.0002906 | 0.0001884 | 0.000192 | 0.000209 | 0.000234
c1 = 0.0003051 | 0.0001964 | 0.0002 | 0.000219 | 0.000242
c1 = 0.0003193 | 0.000203 | 0.000208 | 0.000228 | 0.000253
c1 = 0.0003333 | 0.000196 | 0.000215 | 0.000236 | 0.00026
c1 = 0.0003471 | 0.000201 | 0.000222 | 0.000243 | 0.000269
c1 = 0.0003673 | 0.000206 | 0.000232 | 0.000254 | 0.000281
c1 = 0.0003871 | 0.000219 | 0.000241 | 0.000267 | 0.000293
c1 = 0.0004064 | 0.000228 | 0.000251 | 0.000276 | 0.000305
c1 = 0.0004252 | 0.000236 | 0.000259 | 0.000286 | 0.000315
c1 = 0.0004436 | 0.000242 | 0.000267 | 0.000295 | 0.000326
c1 = 0.0004615 | 0.000249 | 0.000274 | 0.000304 | 0.000336
c1 = 0.0004791 | 0.000258 | 0.000283 | 0.000313 | 0.000342
c1 = 0.0004962 | 0.000265 | 0.000293 | 0.000321 | 0.00035
c1 = 0.000513 | 0.000271 | 0.0003 | 0.00033 | 0.000359

O=C([O-])c1ccccc1O.[Na+] [sodium salicylate] + O
electrical conductivity [S/m]
Details | 298 K | 303 K | 308 K | 313 K
c1 = 3.09e-05 | 2.48e-05 | 2.4e-05 | 2.71e-05 | 3.69e-05
c1 = 6.1e-05 | 4.76e-05 | 4.74e-05 | 5.24e-05 | 6.8e-05
c1 = 9.04e-05 | 6.66e-05 | 6.95e-05 | 7.56e-05 | 9.61e-05
c1 = 0.000119 | 8.34e-05 | 8.73e-05 | 9.64e-05 | 0.000122
c1 = 0.000147 | 0.000102 | 0.000107 | 0.000118 | 0.000149
c1 = 0.0001744 | 0.000118 | 0.000125 | 0.000136 | 0.000173
c1 = 0.0002064 | 0.000135 | 0.000144 | 0.000157 | 0.000197
c1 = 0.0002376 | 0.000152 | 0.000163 | 0.000176 | 0.000208
c1 = 0.0002778 | 0.000173 | 0.000185 | 0.0002 | 0.000237
c1 = 0.0003166 | 0.000192 | 0.000203 | 0.000209 | 0.000264
c1 = 0.0003541 | 0.000204 | 0.00021 | 0.000228 | 0.000286
c1 = 0.0003903 | 0.00021 | 0.000227 | 0.000248 | 0.000309
c1 = 0.0004339 | 0.000226 | 0.000248 | 0.00027 | 0.000327
c1 = 0.0004757 | 0.000244 | 0.000266 | 0.00029 | 0.000363
c1 = 0.0005237 | 0.000261 | 0.000288 | 0.000315 | 0.000393
c1 = 0.0005695 | 0.000281 | 0.000307 | 0.000338 | 0.000419
c1 = 0.0006132 | 0.000297 | 0.000325 | 0.000357 | 0.000441
c1 = 0.000655 | 0.000311 | 0.000342 | 0.000373 | 0.000463
c1 = 0.0007014 | 0.000322 | 0.00036 | 0.000394 | 0.000486
c1 = 0.0007517 | 0.000344 | 0.000378 | 0.000412 | 0.000511
c1 = 0.0007993 | 0.00036 | 0.000395 | 0.000434 | 0.000533
c1 = 0.0008444 | 0.000373 | 0.000409 | 0.000457 | 0.000547
c1 = 0.0008974 | 0.000389 | 0.000422 | 0.000482 | 0.000572
c1 = 0.0009472 | 0.000401 | 0.000448 | 0.000502 | 0.000592
c1 = 0.001003 | 0.000417 | 0.000459 | 0.000527 | 0.000614
c1 = 0.001063 | 0.000433 | 0.000483 | 0.000551 | 0.000635
c1 = 0.001123 | 0.00045 | 0.000492 | 0.000561 | 0.000656
c1 = 0.001181 | 0.000464 | 0.000515 | 0.000594 | 0.000674
c1 = 0.001241 | 0.000474 | 0.000535 | 0.000613 | 0.000692
c1 = 0.001301 | 0.000494 | 0.000552 | 0.000631 | 0.000712

CCCCCCCCCCCCCCCC[N+](C)(C)CCCCC[N+](C)(C)CCCCCCCCCCCCCCCC.[Br-].[Br-] + O
electrical conductivity [S/m]
Details | 298 K | 303 K | 308 K | 313 K
c1 = 3.3e-06 | 6.8e-05 | 6.9e-05 | 7e-05 | 7.1e-05
c1 = 6.6e-06 | 0.000129 | 0.000135 | 0.000148 | 0.00015
c1 = 9.9e-06 | 0.00021 | 0.000219 | 0.00023 | 0.000236
c1 = 1.32e-05 | 0.000279 | 0.00029 | 0.000292 | 0.000308
c1 = 1.64e-05 | 0.000358 | 0.000376 | 0.000385 | 0.000396
c1 = 1.96e-05 | 0.000418 | 0.000432 | 0.000442 | 0.000456
c1 = 2.28e-05 | 0.000495 | 0.000505 | 0.000514 | 0.000519
c1 = 2.6e-05 | 0.000557 | 0.000564 | 0.000579 | 0.000584
c1 = 2.91e-05 | 0.000634 | 0.000646 | 0.000659 | 0.000684
c1 = 3.23e-05 | 0.000684 | 0.000699 | 0.000715 | 0.000732
c1 = 3.54e-05 | 0.000746 | 0.000766 | 0.000779 | 0.000789
c1 = 3.85e-05 | 0.000803 | 0.000816 | 0.000826 | 0.00087
c1 = 4.15e-05 | 0.000873 | 0.000873 | 0.000896 | 0.000945
c1 = 4.46e-05 | 0.000935 | 0.000935 | 0.000956 | 0.000998
c1 = 4.76e-05 | 0.001 | 0.001 | 0.00101 | 0.00108
c1 = 5.06e-05 | 0.00103 | 0.00105 | 0.00106 | 0.00112
c1 = 5.36e-05 | 0.00109 | 0.00113 | 0.00113 | 0.00115
c1 = 5.66e-05 | 0.00113 | 0.00116 | 0.00116 | 0.00121
c1 = 5.96e-05 | 0.00119 | 0.00122 | 0.00123 | 0.00125
c1 = 6.25e-05 | 0.00123 | 0.00127 | 0.00129 | 0.00129
c1 = 6.54e-05 | 0.00128 | 0.00132 | 0.00135 | 0.00135
c1 = 6.83e-05 | 0.00133 | 0.00137 | 0.00138 | 0.0014
c1 = 7.12e-05 | 0.00137 | 0.00142 | 0.00145 | 0.00144
c1 = 7.41e-05 | 0.00142 | 0.00146 | 0.00147 | 0.00148
c1 = 7.69e-05 | 0.00144 | 0.00149 | 0.0015 | 0.00152

CCCCCCCCCCCCCCCC[N+](C)(C)CCCCCC[N+](C)(C)CCCCCCCCCCCCCCCC.[Br-].[Br-] + O
electrical conductivity [S/m]
Details | 298 K | 303 K | 308 K | 313 K
c1 = 3.3e-06 | 7.1e-08 | 7.2e-08 | 7.3e-08 | 7.5e-08
c1 = 6.6e-06 | 1.31e-07 | 1.53e-07 | 1.22e-07 | 1.33e-07
c1 = 9.9e-06 | 2.04e-07 | 2.14e-07 | 2.09e-07 | 1.92e-07
c1 = 1.32e-05 | 2.59e-07 | 2.69e-07 | 2.84e-07 | 2.42e-07
c1 = 1.64e-05 | 3.27e-07 | 3.46e-07 | 3.66e-07 | 3.21e-07
c1 = 1.96e-05 | 3.99e-07 | 4.09e-07 | 4.21e-07 | 3.95e-07
c1 = 2.28e-05 | 4.86e-07 | 5.06e-07 | 5.18e-07 | 4.69e-07
c1 = 2.6e-05 | 5.26e-07 | 5.46e-07 | 5.67e-07 | 5.41e-07
c1 = 2.91e-05 | 6.16e-07 | 6.36e-07 | 6.57e-07 | 6.23e-07
c1 = 3.23e-05 | 6.92e-07 | 7.02e-07 | 7.22e-07 | 6.81e-07
c1 = 3.54e-05 | 7.86e-07 | 8.06e-07 | 8.22e-07 | 7.7e-07
c1 = 3.85e-05 | 8.34e-07 | 8.54e-07 | 8.91e-07 | 8.38e-07
c1 = 4.15e-05 | 9.29e-07 | 9.49e-07 | 9.65e-07 | 9.01e-07
c1 = 4.46e-05 | 9.65e-07 | 9.95e-07 | 1.042e-06 | 9.69e-07
c1 = 4.76e-05 | 1.031e-06 | 1.031e-06 | 1.071e-06 | 1.041e-06
c1 = 5.06e-05 | 1.084e-06 | 1.084e-06 | 1.113e-06 | 1.113e-06
c1 = 5.36e-05 | 1.145e-06 | 1.145e-06 | 1.17e-06 | 1.18e-06
c1 = 5.66e-05 | 1.186e-06 | 1.206e-06 | 1.226e-06 | 1.246e-06
c1 = 5.96e-05 | 1.209e-06 | 1.249e-06 | 1.269e-06 | 1.299e-06
c1 = 6.25e-05 | 1.272e-06 | 1.292e-06 | 1.312e-06 | 1.352e-06
c1 = 6.54e-05 | 1.326e-06 | 1.356e-06 | 1.376e-06 | 1.396e-06
c1 = 6.83e-05 | 1.359e-06 | 1.379e-06 | 1.399e-06 | 1.447e-06
c1 = 7.12e-05 | 1.396e-06 | 1.416e-06 | 1.456e-06 | 1.486e-06
c1 = 7.41e-05 | 1.437e-06 | 1.457e-06 | 1.477e-06 | 1.541e-06
c1 = 7.69e-05 | 1.462e-06 | 1.482e-06 | 1.512e-06 | 1.59e-06
